Reference: patent US8865230B2, “Compositions and methods for treating parasitic infections” (TyraTech, Inc., priority 2006, dated 2014)

Experiments:
Tyramine receptor (TyrR) [1] = target: T1, Tyramine receptor (TyrR) (Drosophila melanogaster, UniProt P22270); experiment: Effect on intracellular Ca2+ in cells expressing TyrR (Example 14); assay type: cell-based
T1 construct: expressed in transfected cells
T1 sequence (P22270 27-601): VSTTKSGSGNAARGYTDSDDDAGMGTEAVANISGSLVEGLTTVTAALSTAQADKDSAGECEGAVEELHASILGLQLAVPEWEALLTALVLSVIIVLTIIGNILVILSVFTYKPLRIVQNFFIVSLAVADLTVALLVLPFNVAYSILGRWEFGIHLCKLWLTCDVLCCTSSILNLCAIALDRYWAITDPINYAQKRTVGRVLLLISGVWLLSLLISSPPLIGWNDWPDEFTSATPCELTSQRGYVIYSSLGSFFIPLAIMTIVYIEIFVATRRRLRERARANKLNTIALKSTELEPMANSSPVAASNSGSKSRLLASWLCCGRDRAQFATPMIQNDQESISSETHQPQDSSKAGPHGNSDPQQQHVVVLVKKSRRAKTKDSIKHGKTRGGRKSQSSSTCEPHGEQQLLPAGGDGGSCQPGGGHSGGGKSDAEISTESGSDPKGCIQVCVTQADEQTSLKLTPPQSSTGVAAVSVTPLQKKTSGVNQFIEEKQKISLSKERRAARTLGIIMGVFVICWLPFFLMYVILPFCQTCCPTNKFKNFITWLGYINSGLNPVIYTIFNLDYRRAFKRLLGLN

Tyramine receptor (TyrR) [2] = target: T1, Tyramine receptor (TyrR); experiment: Effect on intracellular cAMP in cells expressing TyrR (Example 14); assay type: cell-based
Hymenolepis nana = experiment: H. nana in vivo, infected mice treated orally with single test agents Rx (Example 1); details: 400 mg/kg orally daily for 5 days
Tyramine receptor (TyrR) [3] = target: T1, Tyramine receptor (TyrR); experiment: Tyramine receptor binding affinity in cells expressing TyrR (Example 14)

SMILES	Effects Intracellular Ca2+ (Yes or No) (Tyramine receptor (TyrR) [1])	Effects Intracellular cAMP (Yes or No) (Tyramine receptor (TyrR) [2])	Egg Count (X ± SD), During Treatment 1st Day (Hymenolepis nana)	Egg Count (X ± SD), During Treatment 3rd Day (Hymenolepis nana)	Tyramine Receptor Binding Affinity (High or Low) (Tyramine receptor (TyrR) [3])
C=CCc1ccc(O)c(OC)c1 [Eugenol]	Yes	No			
Cc1ccc(C(C)C)cc1O [Rx 4, carvacrol]			5 ± 0.6	1 ± 1.9	
CC(C)=CCC/C(C)=C/CO [Rx 5, geraniol]	Yes	Yes	14 ± 13.9		
CC12CCC(CC1)C(C)(C)O2 [Rx 6, cineol]	Yes	Yes	5 ± 9.5	1 ± 1.2	
CC=Cc1ccc(OC)cc1 [anethole]	Yes	Yes			Low
OCc1ccccc1 [benzyl alcohol]	No	Yes			
OCC=Cc1ccccc1 [cinnamyl alcohol]	Yes	No			
C=C(C)[C@H]1CC=C(C)CC1 [d-limonene]	Yes	Yes and No			
C=CC(C)(O)CCC=C(C)C (stereo not shown) [linalool]	Yes	No			high
Cc1ccc(C(C)C)cc1 [p-cymene]	Yes	Yes			low
CCC(=O)OCCc1ccccc1 [phenethyl proprionate]	No	Yes			
CCCCCCCCCCCCOS(=O)(=O)[O-].[Na+] [sodium lauryl sulfate]	No	No			
CCC(C)(O)CCCC(C)C (stereo not shown) [tetrahydrolinalool]	Yes	Yes			
Cc1ccc(C(C)C)c(O)c1 [thymol]	Yes	No			high
CC1=CCC2CC1C2(C)C (stereo not drawn) [α-pinene]	No	No			
